Columns and labels:
[1] = tested on: self-complementary strands (5′-XCGCGCG); experiment: dangling end thermal denaturation studies (base stacking) with self-complementary strands; format: physicochemical; settings: for ΔG°37 (van't Hoff) / ΔH° (van't Hoff) / ΔS° (van't Hoff) / ΔΔG° stacking per base / Tm / ΔG°37 (fits) / ΔTm: dangling residue X in 5′-XCGCGCG; for Tm: 5.0 μM DNA strand, 1M NaCl, 10 mM phosphate buffer (pH 7.0), 0.1 mM EDTA, 280 nm; for ΔG°37 (fits): curve fits; for ΔTm: versus duplex with no dangling residue
Experimental: (§1) Thermal Denaturation Studies. After the samples were prepared in melting buffer (1M NaCl, 10 mM phosphate buffer (pH 7.0) with 0.1 mM EDTA), they were heated to 95° C. and allowed to slowly cool at a rate of 1° C./min to 5° C. The melting studies were carried out in Teflon-stoppered 1 cm path length quartz cells on a Varian Cary 1 UV-vis spectophotometer equipped with thermoprogrammer. Absorbance was monitored at 280 nm for stacking and at 260 nm for base pairing. […] The data were analyzed by the melt curve processing program, MeltWin v. 3.0. Melting temperatures (Tm) were determined by computer-fit of the first derivative of absorbance with respect to 1/T. Uncertainty in Tm is estimated at ±0.5° C. based on repetitions of experiments. Free-energy values were derived by two methods: (1) computer-fitting the denaturation data with an algorithm employing linear sloping baselines, using the two-state approximation for melting. Fits were excellent, with χ^−2 values of 10^−6 or better. (2) Van't Hoff thermodynamic parameters were derived from linear plots of 1/Tm vs In[CT] by measuring Tm as a function of concentration.
Sequence Design. We incorporated all five phosphoramidites into three new sequence contexts each for further study of pairing and stacking properties. The first is a self-complementary sequence designed to form a hexamer duplex, with the nonnatural base analogue overhanging (dangling) at the 5′ ends (Table 2). This same sequence context has been used previously in several studies of DNA base stacking. The second and third contexts comprise a pair of 12mer sequences that form duplexes with well-behaved two-state behavior. One strand is pyrimidine-rich, while the other is purine-rich; we substituted each analogue at a central position of each strand to test two widely varied sequence contexts for pairing effects.
Base Stacking. DNA base stacking stability has been correlated with the size of compounds when mono-, bi-, tri-, and tetra-cyclic base analogues were compared. To test this with the present series, which varies in size by a smaller amount, we examined the short self-complementary oligonucleotides by thermal denaturation experiments. The self-complementary duplexes contained the modified nucleosides as a 5′ overhanging base.

[2] = tested on: normal and bypass (SOS-induced) polymerases in E. coli; experiment: bacterial replication assay: bypass efficiency and fidelity of analogs in single-stranded M13 vector passaged through E. coli; format: cell-based; settings: for single-base deletions: diminished when bypass polymerases were induced; for difference between the match and mismatch efficiency, increase in cells expressing induced bypass polymerases: SOS-induced bypass polymerases
Description: Bacterial replication assay. The assay for bypass efficiency fidelity is briefly described in the text.
To ascertain the influence of sub-Angstrom size increases on the template coding properties of the T analogs in vivo, we ligated oligonucleotides containing each analog into a single-stranded M13 vector, which were then passaged through E. coli and scored for bypass efficiency and mutagenesis (fidelity) as described. We chose E. coli deficient in AlkB to eliminate the possibility of metabolization of the H analog, which was subsequently found to have no influence on the results when compared with AlkB-proficient cells. Bypass experiments shown in FIG. 7 were performed in a competitive manner, and efficiencies were evaluated by PCR-based quantitation of successfully replicated progeny DNA. SOS-induction of bypass polymerases by prior irradiation of E. coli with ultraviolet light increased trans-analog synthesis approximately 2-fold for all thymine analogs. […] It is noteworthy that the difference between the match and mismatch efficiency increased in cells expressing induced bypass polymerases: L (0.2), B (8.0), I (17.4), implying higher fidelity for the larger isosteres for bypass polymerases, which may contain larger or looser active sites.

[3] = tested on: DNA Pol I (Klenow fragment, exo-); experiment: steady-state kinetics of single nucleotide insertions, thymidine analogues in the template; format: biochemical, E. coli; design: efficiency: unit not given here; settings: for rel. efficiency: relative to insertion of dATP opposite T
Experimental: In vitro steady-state kinetics. As polymerase substrates we used 28 mer/23 mer template-primer duplexes having the sequence (5′-ACT GXT CTCCCTATAGTGAGTCGTATTA [SEQ ID NO:1])·(5′-TAATACGACTCACTATAGGGAGA [SEQ ID NO:2]). Kinetics were measured at 37° C. in a buffer containing 10 mM Mg^2+. The primer was 5′ end-labeled and was extended by the polymerase in the presence of a single dNTP species over varied concentration and time. Products of single nucleotide insertions were resolved from unreacted primer by 20% denaturing gel electrophoresis, and were quantitated by autoradiography. Details of the kinetics experiments are given in the Supporting Data.
We chose DNA polymerase I (Klenow fragment, exonuclease-deficient) as an ideal candidate for initial study, as it is enzymatically well-characterized among replicative enzymes, and yet is relatively small and acts as a single subunit. We carried out kinetics studies of single nucleotide insertions in the steady state, using a gel electrophoresis-based assay.
Data for single nucleotide insertion kinetics in the steady-state. The enzyme was the Klenow fragment of DNA pol I from E. coli (exonuclease deficient). Methods are as described above.

[4] = tested on: 12-base pair duplex 5′-CTTTTCXTTCTT / 3′-GAAAAGXAAGAA; experiment: thermal denaturation, base pairing near the center of a 12-base pair duplex; format: physicochemical; settings: pyrimidine- or purine-rich strand, compared to T
Experimental: as §1
Sequence Design. We incorporated all five phosphoramidites into three new sequence contexts each for further study of pairing and stacking properties. […]

[5] = insertion of dATP opposite template base, 37° C.
[6] = insertion of dATP opposite template base, 37° C., 10 mM MgCl2, pH 7.5, normalized to lowest enzyme concentration
[7] = insertion of dATP opposite template base
[8] = insertion of dCTP opposite template base, 37° C.
[9] = insertion of dCTP opposite template base, 37° C., 10 mM MgCl2, pH 7.5, normalized to lowest enzyme concentration
[10] = insertion of dCTP opposite template base
[11] = insertion of dGTP opposite template base, 37° C.
[12] = insertion of dGTP opposite template base, 37° C., 10 mM MgCl2, pH 7.5, normalized to lowest enzyme concentration
[13] = insertion of dGTP opposite template base
[14] = insertion of dTTP opposite template base, 37° C.
[15] = insertion of dTTP opposite template base, 37° C., 10 mM MgCl2, pH 7.5, normalized to lowest enzyme concentration
[16] = insertion of dTTP opposite template base
[17] = Example 4: incorporating dATP opposite template thymidine analog

Molecule | ΔG°37 (van't Hoff) [1] | ΔH° (van't Hoff) [1] | ΔS° (van't Hoff) [1] | ΔΔG° stacking per base [1] | Tm [1] | ΔG°37 (fits) [1] | ΔTm [1] | Km [3, 5] | Vmax [3, 6] | rel. efficiency [3, 7] | Km [3, 8] | Vmax [3, 9] | rel. efficiency [3, 10] | Km [3, 11] | Vmax [3, 12] | rel. efficiency [3, 13] | Km [3, 14] | Vmax [3, 15] | rel. efficiency [3, 16] | difference between the match and mismatch efficiency, increase in cells expressing induced bypass polymerases ([2]; E. coli) | other results
2,4-diHydrogentoluene | -9.7 ± 0.1 kcal/mol | -55.4 ± 2.0 kcal/mol | −147 ± 6 cal/K · mol | 0.95 kcal/mol | 49.7 °C | -9.7 ± 0.0 kcal/mol | 11.1 °C | 20 ± 2 µM | 0.90 ± 0.18 % · m in^−1 | 3.5 × 10^−3 | 100 ± 60 µM | 0.031 ± 0.006 % · m in^−1 | 2.4 × 10^−5 | 600 ± 210 µM | 0.025 ± 0.007 % · m in^−1 | 3.2 × 10^−6 | 61 ± 37 µM | 0.062 ± 0.022 % · m in^−1 | 7.7 × 10^−5 | – | stabilization of the duplex by 5′ overhanging base (stacking) ([1]; compared with natural thymidine in the same position): least stabilizing of the series; single-base deletions ([2]; E. coli): evident
Cc1ccc(Br)cc1Br [B, 2,4-dibromotoluene] | -10.8 ± 0.1 kcal/mol | -62.0 ± 2.1 kcal/mol | −165 ± 7 cal/K · mol | 1.50 kcal/mol | 54.3 °C | -10.2 ± 0.0 kcal/mol | 15.7 °C | 21 ± 5 µM | 12 ± 1 % · m in^−1 | 4.4 × 10^−2 | 79 ± 33 µM | 0.038 ± 0.005 % · m in^−1 | 3.7 × 10^−5 | 220 ± 100 µM | 0.023 ± 0.005 % · m in^−1 | 7.7 × 10^−6 | 37 ± 12 µM | 0.20 ± 0.03 % · m in^−1 | 4.2 × 10^−4 | 8.0 | –
Cc1ccc(Cl)cc1Cl [L, 2,4-dichlorotoluene] | -10.0 ± 0.1 kcal/mol | -52.7 ± 1.2 kcal/mol | −138 ± 4 cal/K · mol | 1.10 kcal/mol | 52.3 °C | -10.1 ± 0.0 kcal/mol | 13.7 °C | 3.3 ± 2.8 µM | 27 ± 5 % · m in^−1 | 6.3 × 10^−1 | 25 ± 13 µM | 0.021 ± 0.003 % · m in^−1 | 6.5 × 10^−5 | 190 ± 90 µM | 0.029 ± 0.007 % · m in^−1 | 1.2 × 10^−5 | 18 ± 18 µM | 0.13 ± 0.04 % · m in^−1 | 5.5 × 10^−4 | 0.2 | replication bypass efficiency ([2]; E. coli, normal and bypass polymerases, competitive, PCR-based quantitation of progeny DNA): maximum bypass; replication fidelity in E. coli ([2]; normal and bypass polymerases): maximal in vivo fidelity
Cc1ccc(I)cc1I [I, 2,4-diiodotoluene] | -10.4 ± 0.2 kcal/mol | -55.7 ± 4.4 kcal/mol | −146 ± 14 cal/K · mol | 1.30 kcal/mol | 53.8 °C | -10.2 ± 0.1 kcal/mol | 15.2 °C | 26 ± 11 µM | 1.3 ± 0.2 % · m in^−1 | 3.8 × 10^−3 | 20 ± 8 µM | 0.036 ± 0.001 % · m in^−1 | 1.4 × 10^−4 | 58 ± 18 µM | 0.017 ± 0.001 % · m in^−1 | 2.2 × 10^−5 | 48 ± 39 µM | 0.085 ± 0.037 % · m in^−1 | 1.4 × 10^−4 | 17.4 | single-base deletions ([2]; E. coli): evident; pairing stability opposite natural bases [4]: least destabilizing
Cc1c[nH]c(=O)[nH]c1=O [T, thymine, reference compound] | -9.1 ± 0.1 kcal/mol | -54.4 ± 4.1 kcal/mol | −146 ± 13 cal/K · mol | 0.65 kcal/mol | 46.0 °C | -9.1 ± 0.1 kcal/mol | 7.4 °C | 1.9 ± 0.5 µM | 24 ± 1 % · m in^−1 | 1 | 46 ± 28 µM | 0.022 ± 0.006 % · m in^−1 | 3.7 × 10^−5 | – | 0.41 ± 0.15 % · m in^−1 | 5.6 × 10^−4 | 38 ± 38 µM | 0.012 ± 0.004 % · m in^−1 | 2.5 × 10^−5 | – | Km [3, 17]: 2.6 ± 0.75 µM; Vmax [3, 17]: 45.7931 ± 1.7743; efficiency [3, 17]: (1.86 ± 0.56) × 10^7; Rel. efficiency ([3]; Example 4: incorporating dATP opposite template thymidine analog, T template = 1): 1
